{
  "source": "patent US20050119179A1",
  "about": "“Inositol 1, 4, 5-triphosphate receptor (type 1), phosphorylation and modulation by CDC2” (priority 2003, published 2005)",
  "key": {"[1]": {"test_system": "IP3 receptor", "test": "IP3 receptor function in wild type and phosphorylation deficient mutant DT40 cells before and after activation", "assay_type": "cell-based", "details": "phosphorylation deficient mutant, FIG. 6", "description": "The compounds were tested on wild type DT40 cells. The phosphorylation deficient cells were generated by transfecting phosphorylation deficient IP3R mutant cDNAs into triple IP3R deficient DT40 cells. These cells express mutant IP3R with Ser421 and Thr799 replaced by alanine residues. The remaining portion of the receptor is the same as native IP3R."}, "[2]": {"molecular_target": "T1, native cerebellar IP3R (Mus musculus, UniProt P11881)", "T1 construct": "host or cells: cerebellum", "T1 sequence (P11881 whole entry)": "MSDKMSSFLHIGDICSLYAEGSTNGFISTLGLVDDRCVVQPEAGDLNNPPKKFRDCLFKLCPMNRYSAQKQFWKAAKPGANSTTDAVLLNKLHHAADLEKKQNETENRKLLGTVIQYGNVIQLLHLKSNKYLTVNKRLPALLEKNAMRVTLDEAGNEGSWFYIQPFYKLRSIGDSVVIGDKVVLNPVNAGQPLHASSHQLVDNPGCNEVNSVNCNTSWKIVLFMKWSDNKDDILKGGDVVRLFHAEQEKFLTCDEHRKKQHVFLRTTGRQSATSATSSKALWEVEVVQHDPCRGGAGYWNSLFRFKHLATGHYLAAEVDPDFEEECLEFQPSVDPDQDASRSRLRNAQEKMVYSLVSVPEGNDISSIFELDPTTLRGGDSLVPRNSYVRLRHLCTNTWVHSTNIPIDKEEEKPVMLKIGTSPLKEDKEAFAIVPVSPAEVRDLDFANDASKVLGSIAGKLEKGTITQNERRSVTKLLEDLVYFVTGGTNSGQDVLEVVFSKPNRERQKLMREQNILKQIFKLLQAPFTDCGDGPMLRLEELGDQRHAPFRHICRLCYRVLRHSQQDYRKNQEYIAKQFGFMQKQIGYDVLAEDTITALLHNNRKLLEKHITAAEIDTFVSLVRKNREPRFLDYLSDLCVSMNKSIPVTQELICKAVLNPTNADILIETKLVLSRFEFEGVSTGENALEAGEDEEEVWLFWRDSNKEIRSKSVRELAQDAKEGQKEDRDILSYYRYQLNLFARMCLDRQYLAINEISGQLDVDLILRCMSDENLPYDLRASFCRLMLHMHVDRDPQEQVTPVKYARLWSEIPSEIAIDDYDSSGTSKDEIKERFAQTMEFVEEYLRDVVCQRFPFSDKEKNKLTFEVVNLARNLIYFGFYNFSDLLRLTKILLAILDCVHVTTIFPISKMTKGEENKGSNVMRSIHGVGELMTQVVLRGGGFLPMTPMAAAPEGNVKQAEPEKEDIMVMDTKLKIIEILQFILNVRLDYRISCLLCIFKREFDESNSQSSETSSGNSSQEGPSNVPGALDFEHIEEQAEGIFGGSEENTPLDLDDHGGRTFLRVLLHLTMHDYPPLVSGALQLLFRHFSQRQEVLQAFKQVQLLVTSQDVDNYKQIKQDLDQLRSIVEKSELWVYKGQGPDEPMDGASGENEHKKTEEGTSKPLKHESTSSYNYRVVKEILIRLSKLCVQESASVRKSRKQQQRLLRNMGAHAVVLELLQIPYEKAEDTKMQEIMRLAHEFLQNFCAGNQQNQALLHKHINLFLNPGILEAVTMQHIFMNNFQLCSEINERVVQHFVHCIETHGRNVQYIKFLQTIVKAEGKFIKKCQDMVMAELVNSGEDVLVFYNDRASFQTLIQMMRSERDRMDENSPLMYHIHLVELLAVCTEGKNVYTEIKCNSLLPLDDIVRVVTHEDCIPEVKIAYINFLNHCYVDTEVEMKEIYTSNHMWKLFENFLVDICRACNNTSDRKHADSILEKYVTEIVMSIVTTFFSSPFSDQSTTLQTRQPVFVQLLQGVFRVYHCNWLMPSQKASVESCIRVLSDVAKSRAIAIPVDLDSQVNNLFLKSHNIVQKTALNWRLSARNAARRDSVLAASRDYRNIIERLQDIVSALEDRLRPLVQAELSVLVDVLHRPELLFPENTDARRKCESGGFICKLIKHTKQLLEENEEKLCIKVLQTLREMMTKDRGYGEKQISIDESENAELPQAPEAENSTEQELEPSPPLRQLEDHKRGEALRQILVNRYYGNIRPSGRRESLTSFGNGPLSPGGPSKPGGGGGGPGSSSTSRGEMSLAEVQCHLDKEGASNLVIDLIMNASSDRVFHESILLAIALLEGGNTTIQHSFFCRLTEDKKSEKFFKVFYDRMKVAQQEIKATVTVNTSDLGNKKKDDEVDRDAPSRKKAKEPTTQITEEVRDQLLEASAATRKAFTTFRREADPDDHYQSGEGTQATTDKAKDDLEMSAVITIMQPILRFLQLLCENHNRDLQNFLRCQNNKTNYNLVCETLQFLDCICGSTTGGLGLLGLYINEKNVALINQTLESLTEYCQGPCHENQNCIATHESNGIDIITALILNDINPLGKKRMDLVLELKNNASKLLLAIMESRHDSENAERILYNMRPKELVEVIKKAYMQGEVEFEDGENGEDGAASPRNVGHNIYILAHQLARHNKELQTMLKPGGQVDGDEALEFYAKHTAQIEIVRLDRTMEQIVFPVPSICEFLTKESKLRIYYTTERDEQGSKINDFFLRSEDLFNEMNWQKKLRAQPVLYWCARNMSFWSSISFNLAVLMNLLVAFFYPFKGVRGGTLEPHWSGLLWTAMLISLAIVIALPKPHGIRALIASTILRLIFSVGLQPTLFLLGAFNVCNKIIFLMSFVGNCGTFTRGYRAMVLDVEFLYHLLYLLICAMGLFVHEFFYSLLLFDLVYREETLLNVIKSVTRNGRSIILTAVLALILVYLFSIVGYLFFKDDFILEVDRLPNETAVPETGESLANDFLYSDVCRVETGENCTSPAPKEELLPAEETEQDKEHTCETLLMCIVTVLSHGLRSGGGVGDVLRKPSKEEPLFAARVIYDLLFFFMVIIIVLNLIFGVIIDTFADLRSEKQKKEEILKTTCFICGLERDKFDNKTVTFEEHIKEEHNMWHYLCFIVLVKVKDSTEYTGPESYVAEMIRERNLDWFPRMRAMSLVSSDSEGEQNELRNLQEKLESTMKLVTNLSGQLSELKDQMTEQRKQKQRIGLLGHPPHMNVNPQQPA", "details": "read-out: affinity for IP3; cited from earlier work"}, "[3]": {"test_system": "IP3R1 phosphorylation at Ser421 and Thr799 in DT40 cells", "test": "IP3R1 phosphorylation in DT40 cells, immunoblot with αSer421 and αThr799", "assay_type": "cell-based", "details": "1 μM nocodazole, 16 h, serum-starved DT40 cells, compared to control cells", "description": "FIG. 4 IP3R1 phosphorylation at Ser421 and Thr799 occurs in vivo. DT40 cells were serum-starved for 24 h and cultured with and without 1 μM nocodazole (control) for 16 h in RPMI-1640 medium containing 10% FBS. After 16 h in culture, cells were washed two times with PBS, and cell lysates were resolved on 6% SDS-PAGE gels and immunoblotted with αSer^421 (A), αThr^799 (B) or αIP3R1 (C).\nCells were equalized for number and lysed in ice-cold lysis buffer containing 0.5% Nonidet P-40, 25 mM HEPES, pH 7.4, 150 mM NaCl, 1 mM EDTA, 1 mM sodium orthovanadate and protease inhibitors. Cell lysates were centrifuged at 13,000× g in a microcentrifuge, and the supernatants were subjected to immunoblotting and immunoprecipitation (Frangioni and Neal 1993; Matter, et al., 1993). The membranes were blocked in TBST (20 mM Tris/HCl, pH 7.4, 0.9% NaCl, and 0.05% Tween 20) containing 5% nonfat dried milk for 1 hr followed by incubation with primary antibodies. After extensive washings, the membranes were incubated with secondary antibody conjugated to horseradish peroxidase (goat anti-rabbit IgG; Pharmingen, Calif.) in TBST containing 5% nonfat dried milk. The immunoblots were analyzed using an ECL detection system (Amersham, Piscataway, N.J.). […] Phosphoproteins were separated by SDS-PAGE and detected by autoradiography as described (Frangioni and Neal 1993; Means 1994). […]"}, "[4]": {"test_system": "syncytial cell death induced by HIV infection", "details": "inhibition of cdc2 activity; cited from earlier work"}},
  "note": "pKd: −log10 of the molar value.",
  "data": [
    {"molecule": "NCCOB(c1ccccc1)c1ccccc1", "note": "[2-APB]", "values": [
      {"measurement": "IP3 receptor function", "setting": "[1]", "result": "affect IP3 receptor function"}
    ]},
    {"molecule": "O=P(O)(O)O[C@@H]1[C@H](O)[C@H](O)[C@@H](OP(=O)(O)O)[C@H](OP(=O)(O)O)[C@H]1O", "note": "[IP3, inositol 1,4,5-trisphosphate]", "values": [
      {"measurement": "pKd", "setting": "[2]", "result": 7.08}
    ]},
    {"molecule": "COC(=O)Nc1nc2ccc(C(=O)c3cccs3)cc2[nH]1", "note": "[Nocodazole, nocodazole]", "values": [
      {"measurement": "IP3R1 phosphorylation at both Ser421 and Thr799", "setting": "[3]", "result": "greatly enhanced IP3R1 phosphorylation"}
    ]},
    {"molecule": "CC[C@H](CO)Nc1nc(NCc2ccccc2)c2ncn(C(C)C)c2n1", "note": "[roscovitine]", "values": [
      {"measurement": "syncytial cell death induced by HIV infection", "setting": "[4]", "result": "prevented syncytial cell death"}
    ]},
    {"molecule": "Xestospongin", "values": [
      {"measurement": "IP3 receptor function", "setting": "[1]", "result": "affect IP3 receptor function"}
    ]}
  ]
}
